Where a name gives a salt, the structure may show the parent alone. Read-outs that look alike come from different tables or passages of the source.
Tests used:
[1] = Pharmacokinetic test of Beagle dogs; format: in vivo; settings: both sexes, dog, plasma, po, intragastric administration of solution, 2 mg, n=4, read-out: Absolute bioavailability
Procedure: Sublingual film and intragastric administration: A two-period double crossover test was adopted, and the washout period was 1 week.
The dogs were fasted for 16 hours before administration and had free access to water. After 4 hours of administration, the dogs had free access to water, and food was administered. 2 mL of blood was collected from the forelimb or hindlimb vein before administration (0 h) and 0.033 h, 0.083 h, 0.167 h, 0.25 h, 0.333 h, 0.5 h, 0.75 h, 1 h, 1.5 h, 2 h, 3 h, 4 h, 6 h after administration, and placed in heparin sodium anticoagulation tubes. The collected blood samples were centrifuged immediately (1006×g, 10 min), separated to obtain the plasma and stored at −20° C.

[2] = after oral administration; cited from earlier work

bioavailability [1]: 11.8%
Compound: C#CCN[C@@H]1CCc2ccccc21 [Rasagiline mesylate]
bioavailability [2]: about 36%
